Reference: US9051591B2, “Bacterium of enterobacteriaceae family producing L-aspartic acid or L-aspartic acid-derived metabolites and a method for producing L-aspartic acid or L-aspartic acid-derived metabolites” (AJINOMOTO CO., INC., priority 2010, dated 2015)
Where “and” joins values, the source holds several entries; their conditions need not be identical. Equal entries are not always repeated. Where two headings read alike, the source gives them in different places.

Legend:
ADH-Bj = assay: Screening of substrate specificity, ADH-Bj; conditions: relative to aspartate; 20 mM substrate, 2 mM NADP^+, pH 9.8
ADH-Re = assay: Screening of substrate specificity, ADH-Re; conditions: 20 mM substrate; for Deamination activity, ADH-Re: relative to aspartate, 2 mM NAD^+, pH 9.8; for Amination activity, ADH-Re: relative to oxaloacetate, […] NADH, pH 9
[1] = biological target: T1, purified ADH (Polaromonas sp.) (Polaromonas sp., UniProt Q126F5); assay: Screening of alternative substrates for purified ADH; conditions: 10 mM, 29° C.; for ability to replace aspartic acid in reverse reaction: 1 mM NAD^+; for ability to replace oxaloacetate in forward reaction: […] NADH, 50 mM NH4Cl
T1 sequence (Q126F5 1-267): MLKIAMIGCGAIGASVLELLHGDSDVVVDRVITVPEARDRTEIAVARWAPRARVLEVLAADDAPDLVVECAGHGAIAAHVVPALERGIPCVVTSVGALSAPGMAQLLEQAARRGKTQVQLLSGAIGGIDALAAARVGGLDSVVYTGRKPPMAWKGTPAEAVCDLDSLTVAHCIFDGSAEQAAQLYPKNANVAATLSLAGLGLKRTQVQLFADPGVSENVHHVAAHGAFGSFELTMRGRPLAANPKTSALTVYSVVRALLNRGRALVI

ADH1-Rp = assay: Screening of substrate specificity, ADH1-Rp; conditions: relative to aspartate; 20 mM substrate, 2 mM NADP^+, pH 9.8
ADH (Polaromonas sp.) = biological target: T2, ADH (Polaromonas sp.) (Polaromonas sp., UniProt Q126F5); assay: Screening of substrate specificity, ADH; conditions: 20 mM substrate; for Deamination activity, ADH: relative to aspartate, 2 mM NAD^+, pH 9.8; for Amination activity, ADH: relative to oxaloacetate, […] NADH, pH 9
T2 sequence (Q126F5 1-267): T1 sequence (Q126F5 1-267)

[2] = biological target: T3, Polaromonas sp. aspartate dehydrogenase (Polaromonas sp., UniProt Q126F5); assay: Regulatory properties of the ADH; conditions: for effect on ADH activity in forward and reverse reactions: 29° C., pH 9.8
T3 sequence (Q126F5 1-267): T1 sequence (Q126F5 1-267)

Polaromonas sp. ADH = biological target: T4, Polaromonas sp. ADH (Polaromonas sp., UniProt Q126F5); conditions: Michaelis-Menten plots
T4 sequence (Q126F5 1-267): T1 sequence (Q126F5 1-267)

[3] = biological target: Rhodopseudomonas palustris ADH1-Rp (Rhodopseudomonas palustris, UniProt Q2J3V1); assay: Kinetic parameters of the Rhodopseudomonas palustris AspDH 1
[4] = biological target: Bradyrhizobium japonicum ADH-Bj (Bradyrhizobium diazoefficiens, UniProt Q89FY1); assay: Kinetic parameters of the Bradyrhizobium japonicum ADH-Bj
[5] = biological target: T5, Ralstonia eutropha ADH-Re (Cupriavidus necator, UniProt Q0K391)
T5 sequence (Q0K391 with tags, fused parts or gaps): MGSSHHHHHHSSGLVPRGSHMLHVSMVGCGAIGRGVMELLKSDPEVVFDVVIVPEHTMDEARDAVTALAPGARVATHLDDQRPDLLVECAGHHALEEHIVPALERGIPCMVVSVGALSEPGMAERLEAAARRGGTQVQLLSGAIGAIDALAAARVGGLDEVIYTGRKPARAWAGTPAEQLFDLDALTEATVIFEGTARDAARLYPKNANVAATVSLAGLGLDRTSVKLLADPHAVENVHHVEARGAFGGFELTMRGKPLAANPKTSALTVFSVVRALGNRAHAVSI

[6] = substrate: NC(=O)c1ccc[n+]([C@@H]2O[C@H](COP(=O)([O-])OP(=O)(O)OC[C@H]3O[C@@H](n4cnc5c(N)ncnc54)[C@H](O)[C@@H]3O)[C@@H](O)[C@H]2O)c1; assay: purified protein, by the assay type
[7] = substrate: O=C(O)CC(=O)C(=O)O; assay: purified protein, by the assay type; conditions: other: Oxaloacetate reductive amination; Michaelis-Menten plots
[8] = substrate: N[C@@H](CC(=O)O)C(=O)O; assay: purified protein, by the assay type; conditions: other: Aspartate oxidative deamination; Michaelis-Menten plots
[9] = Aspartic acid oxidative deamination
[10] = Aspartate oxidative deamination
[11] = Oxaloacetate reductive amination, Michaelis-Menten plots
[12] = Oxaloacetate reductive amination
[13] = other: Aspartic acid oxidative deamination, Michaelis-Menten plots
[14] = other: Aspartic acid oxidative deamination
[15] = other: Aspartate oxidative deamination, Michaelis-Menten plots
[16] = other: Aspartate oxidative deamination

C[C@H](N)C(=O)O [Alanine]
Deamination activity, ADH-Bj (ADH-Bj): na (no activity (<2%)) | Deamination activity, ADH-Re (ADH-Re): na (no activity (<2%)) | ability to replace aspartic acid in reverse reaction [1]: No activity | Deamination activity, ADH1-Rp (ADH1-Rp): na (no activity (<2%)) | Deamination activity, ADH (ADH (Polaromonas sp.)): na (no activity (<2%))

N[C@@H](CC(=O)O)C(=O)O [Aspartic acid]
Deamination activity, ADH-Bj (ADH-Bj): 100 ± 11% | decrease of enzyme activity in forward reaction ([2]; addition of 100 mM): 3 times | Km (Polaromonas sp. ADH; [9]): 1.3 ± 0.2 mM | Vmax (Polaromonas sp. ADH; [9]): 26.2 ± 0.9 µmol/min/mg | kcat (Polaromonas sp. ADH; [9]): 12 ± 0.333 s⁻¹ | Deamination activity, ADH-Re (ADH-Re): 100% | Deamination activity, ADH1-Rp (ADH1-Rp): 100 ± 8% | Km [3, 9]: 13.4 ± 0.5 mM | Vmax [3, 9]: 5.61 ± 0.08 µmol/min/mg | kcat [3, 9]: 2.87 ± 0.033 s⁻¹ | Km [4, 10]: 27 ± 4 mM | Vmax [4, 10]: 14.3 ± 0.9 µmol/min/mg | kcat [4, 10]: 7.33 ± 0.5 s⁻¹ | Deamination activity, ADH (ADH (Polaromonas sp.)): 100%

N[C@@H](CCC(=O)O)C(=O)O [Glutamate]
Deamination activity, ADH-Bj (ADH-Bj): 5.5 ± 1.1% | effect on ADH activity in forward and reverse reactions ([2]; addition of 1 mM): not significantly affected | Deamination activity, ADH-Re (ADH-Re): na (no activity (<2%)) | ability to replace aspartic acid in reverse reaction [1]: No activity | Deamination activity, ADH1-Rp (ADH1-Rp): 4.5 ± 0.4% | Deamination activity, ADH (ADH (Polaromonas sp.)): na (no activity (<2%))

Cl.N [NH4Cl]
inhibition of the reverse reaction of aspartic acid deamination ([2]; addition of 1 mM): did not significantly inhibit | Km [5, 11]: 12 mM and 11.9 mM | Vmax [5, 11]: 113 ± 4 µmol/min/mg | kcat [5, 11]: 56.67 ± 2 s⁻¹ | Km (Polaromonas sp. ADH; [12]): 33 mM | Vmax (Polaromonas sp. ADH; [12]): 83 ± 3 µmol/min/mg | kcat (Polaromonas sp. ADH; [12]): 38 ± 1.33 s⁻¹ | Km [3, 12]: 11 mM and 11.3 mM | Vmax [3, 12]: 20.2 ± 0.6 µmol/min/mg | kcat [3, 12]: 10.3 ± 0.333 s⁻¹ | Km [4, 12]: 4.3 mM and 4 mM | Vmax [4, 12]: 48 ± 2 µmol/min/mg | kcat [4, 12]: 24.67 ± 0.833 s⁻¹

O=C(O)CC(=O)C(=O)O [Oxaloacetate]
Amination activity, ADH (ADH (Polaromonas sp.)): 100 ± 3%

CC(=O)SCCNC(=O)CCNC(=O)[C@H](O)C(C)(C)COP(=O)(O)OP(=O)(O)OC[C@H]1O[C@@H](n2cnc3c(N)ncnc32)[C@H](O)[C@@H]1OP(=O)(O)O [acetyl-coenzyme A]
effect on ADH activity in forward and reverse reactions ([2]; addition of 1 mM): not significantly affected

NC(=O)C[C@H](N)C(=O)O [asparagine]
ability to replace aspartic acid in reverse reaction [1]: No activity

CC(C)(COP(=O)(O)OP(=O)(O)OC[C@H]1O[C@@H](n2cnc3c(N)ncnc32)[C@H](O)[C@@H]1OP(=O)(O)O)[C@@H](O)C(=O)NCCC(=O)NCCS [coenzyme A]
effect on ADH activity in forward and reverse reactions ([2]; addition of 1 mM): not significantly affected

CC[C@H](C)[C@H](N)C(=O)O [isoleucine]
ability to replace aspartic acid in reverse reaction [1]: No activity

CC(C)C(=O)C(=O)O [ketoisovaleriate]
Amination activity, ADH-Re (ADH-Re): na (no activity (<0.2%)) | ability to replace oxaloacetate in forward reaction [1]: No activity | Amination activity, ADH (ADH (Polaromonas sp.)): na (no activity (<0.2%))

CCC(C)C(=O)C(=O)O (stereo not shown) [ketomethylvaleriate]
Amination activity, ADH-Re (ADH-Re): na (no activity (<0.2%)) | ability to replace oxaloacetate in forward reaction [1]: No activity | Amination activity, ADH (ADH (Polaromonas sp.)): na (no activity (<0.2%))

O=C(O)CC(O)C(=O)O (stereo not shown) [malate]
effect on ADH activity in forward and reverse reactions ([2]; addition of 1 mM): not significantly affected

CC(=O)C(=O)O [pyruvate]
ability to replace oxaloacetate in forward reaction [1]: No activity | Amination activity, ADH (ADH (Polaromonas sp.)): na (no activity (<0.2%))

CC(C)[C@H](N)C(=O)O [valine]
ability to replace aspartic acid in reverse reaction [1]: No activity

CCC(N)C(=O)O (stereo not drawn) [α-aminobutyrate]
ability to replace aspartic acid in reverse reaction [1]: No activity

CCC(=O)C(=O)O [α-ketobutyrate]
Amination activity, ADH-Re (ADH-Re): na (no activity (<0.2%)) | ability to replace oxaloacetate in forward reaction [1]: No activity | Amination activity, ADH (ADH (Polaromonas sp.)): na (no activity (<0.2%))

O=C(O)CCC(=O)C(=O)O [α-ketoglutarate]
Amination activity, ADH-Re (ADH-Re): na (no activity (<0.2%))

NADPH
Km ([5]; amination, summary range over Hill and Michaelis-Menten fits): 0.39 to 0.9 mM

B1: Polaromonas sp. ADH (Polaromonas sp. JS666) (protein)
chain: T1 sequence (Q126F5 1-267)
Km [6, 13]: 0.424 ± 0.010 mM | Vmax [6, 13]: 32 µmol/min/mg | kcat [6, 13]: 14.68 ± 0.1 s⁻¹ | Km [7]: 2.2 ± 0.3 mM | Vmax [7]: 74 µmol/min/mg | kcat [7]: 33.8 ± 1.5 s⁻¹

B2: Rhodopseudomonas palustris ADH1-Rp (Rhodopseudomonas palustris HaA2) (protein)
chain: MRSGRAPQRVAIAGLGAIGKAIARELDRGLDGLTLGAVASGDPEKHRAFLDGLRTTPPVVPLDQLHAHADLVIEAAPSRLLRAIVEPFVSRGRTAIVLSAAALLQNEDLIDLANLNGGQIIVPTGALIGLDAVTAAAVGTIHSVRMITRKPVDGLRGAPFIVDNGIDLDGLREPLKLFEGTAREAGKGFPANLNVAVALSLAGIGPDRTMVEIWADPGVTRNTHRIEVDADSARFAMTIENVPSDNPRTGLITPLSVIALLRKQSAALRVGT
Km [6, 14]: 7.0 ± 0.3 mM | Vmax [6, 14]: 3.11 µmol/min/mg | kcat [6, 14]: 1.58 ± 0.0333 s⁻¹ | kcat/Km [6, 14]: 227 ± 15 M⁻¹ s⁻¹

B3: Ralstonia eutropha ADH-Re (Cupriavidus necator H16) (protein)
chain: T5 sequence (Q0K391 with tags, fused parts or gaps)
Km [6, 15]: 1.7 ± 0.4 mM | Vmax [6, 15]: 37 µmol/min/mg | kcat [6, 15]: 18.7 ± 1.5 s⁻¹ | Km [7]: 3.3 ± 0.4 mM | kcat [7]: 58.3 ± 2.33 s⁻¹ | Km [8]: 13 ± 3 mM | Vmax [8]: 23 µmol/min/mg | kcat [8]: 11.5 ± 1 s⁻¹ | kcat/Km [8]: 833 M⁻¹ s⁻¹

B4: Bradyrhizobium japonicum ADH-Bj (Bradyrhizobium diazoefficiens USDA 110) (protein)
chain: MGSSHHHHHHSSGDRRWKVMTDQTASSELRVAIAGLGSIGTKIAAALDQGEGLTLSAVAVRDPAKHQAFLNGLRRPPQVLPIDQLGEAADIVVECAPSSQLRAIVEPAVKRGKAAVVVSVGGLLDNFDLVDLARANGGRIIVPTGALIGLDAVNAAVIGTIHSVKMVTRKPIDGLKGAPFIVHNNIDIDTLREPLKLFEGTAREAAKGFPANLNVAVALSLAGVGPDRTSVQIWADPTVTRNVHRIEVEADSARFSMSIENIPSENPKTGLITALSVIALLRKQRATLCVGT
Km [6, 16]: 10 ± 3 mM | Vmax [6, 16]: 6.5 µmol/min/mg | kcat [6, 16]: 3.33 ± 0.5 s⁻¹ | kcat/Km [6, 16]: 333 M⁻¹ s⁻¹
